# Test results reported in US8791132B2, “Compounds and methods for treatment of hypertension” (Medivation Technologies, Inc., priority 2011, dated 2014).
# Legend:
# [1] = biological target: T1, human recombinant adrenergic α2B receptor (Homo sapiens, UniProt P18089); test: Radioligand binding, adrenergic α2B ([3H]Rauwolscine); settings: for Percentage inhibition of ligand binding, Adrenergic α2B (0.03 μM): compound at 0.03 μM; for Ki: read-out: Ki α2B; for inhibition at 0.03 µM: read-out: Percentage inhibition of ligand binding, Adrenergic α2B (0.03 μM), compound at 0.03 μM
# T1 construct: expressed in transfected cells; host or cells: CHO-K1
# T1 sequence (P18089 1-450): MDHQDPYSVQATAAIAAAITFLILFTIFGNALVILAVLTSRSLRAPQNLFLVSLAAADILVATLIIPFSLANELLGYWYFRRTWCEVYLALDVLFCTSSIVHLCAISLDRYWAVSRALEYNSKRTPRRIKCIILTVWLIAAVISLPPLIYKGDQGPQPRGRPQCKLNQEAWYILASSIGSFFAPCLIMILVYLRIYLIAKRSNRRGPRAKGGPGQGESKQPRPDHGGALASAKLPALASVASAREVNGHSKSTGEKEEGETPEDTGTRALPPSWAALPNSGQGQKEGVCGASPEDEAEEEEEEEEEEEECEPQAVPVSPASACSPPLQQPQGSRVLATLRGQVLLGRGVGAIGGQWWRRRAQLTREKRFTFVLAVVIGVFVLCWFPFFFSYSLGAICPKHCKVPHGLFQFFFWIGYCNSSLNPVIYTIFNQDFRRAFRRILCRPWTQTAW
# Summary of the method: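 Receptor expressed in CHO-K1 cells, assayed in 50 mM Tris-HCl pH 7.4 with 12.5 mM MgCl2, 1 mM EDTA and 0.2% BSA. Compounds were incubated with 2.5 nM [3H]Rauwolscine for 60 min at 25° C; 10 μM Prazosin defined non-specific binding. Filter counting gave percent inhibition of specific binding.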
# [2] = biological target: T2, human recombinant adrenergic α2A receptor (Homo sapiens, UniProt P08913); test: Radioligand binding, adrenergic α2A ([3H]MK-912); settings: [3H]MK-912, repeat datapoints each shown; for Percentage inhibition of ligand binding, Adrenergic α2A (0.1 μM): compound at 0.1 μM; for inhibition at 0.1 µM: read-out: Percentage inhibition of ligand binding, Adrenergic α2A (0.1 μM), compound at 0.1 μM
# T2 construct: expressed in transfected cells; host or cells: insect Sf9 cells
# T2 sequence (P08913 1-465): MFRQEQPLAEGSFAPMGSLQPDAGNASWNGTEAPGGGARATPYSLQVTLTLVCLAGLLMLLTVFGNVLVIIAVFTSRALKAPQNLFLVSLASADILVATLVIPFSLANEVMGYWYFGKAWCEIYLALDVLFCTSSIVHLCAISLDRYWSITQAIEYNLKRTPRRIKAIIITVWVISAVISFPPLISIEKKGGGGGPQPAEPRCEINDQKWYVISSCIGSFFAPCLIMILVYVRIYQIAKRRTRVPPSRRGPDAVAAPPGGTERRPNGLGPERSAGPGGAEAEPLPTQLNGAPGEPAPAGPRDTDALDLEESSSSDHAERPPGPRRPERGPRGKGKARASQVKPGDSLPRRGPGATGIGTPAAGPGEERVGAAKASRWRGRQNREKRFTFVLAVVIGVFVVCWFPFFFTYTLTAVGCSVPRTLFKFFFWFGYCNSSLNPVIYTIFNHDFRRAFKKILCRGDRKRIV
# Summary of the method: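 Receptor expressed in insect Sf9 cells, assayed in 50 mM Tris-HCl pH 7.4 with 12.5 mM MgCl2 and 2 mM EDTA. Compounds incubated with 1 nM [3H]MK-912 for 60 min at 25 °C; nonspecific binding defined with 10 μM WB-4101. Filter-bound radioactivity counted; values are percent inhibition of specific binding.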
# [3] = biological target: T3, rat adrenergic α1B receptor (Rattus norvegicus, UniProt P15823); test: Radioligand binding, adrenergic α1B ([3H]Prazosin); settings: [3H]Prazosin, repeat datapoints each shown; for Percentage inhibition of ligand binding, Adrenergic α1B (0.1 μM): compound at 0.1 μM; for inhibition at 0.1 µM: read-out: Percentage inhibition of ligand binding, Adrenergic α1B (0.1 μM), compound at 0.1 μM
# T3 construct: rat adrenergic α1B receptor obtained from Wistar Rat liver; from tissue; host or cells: Wistar rat liver
# T3 sequence (P15823 1-515): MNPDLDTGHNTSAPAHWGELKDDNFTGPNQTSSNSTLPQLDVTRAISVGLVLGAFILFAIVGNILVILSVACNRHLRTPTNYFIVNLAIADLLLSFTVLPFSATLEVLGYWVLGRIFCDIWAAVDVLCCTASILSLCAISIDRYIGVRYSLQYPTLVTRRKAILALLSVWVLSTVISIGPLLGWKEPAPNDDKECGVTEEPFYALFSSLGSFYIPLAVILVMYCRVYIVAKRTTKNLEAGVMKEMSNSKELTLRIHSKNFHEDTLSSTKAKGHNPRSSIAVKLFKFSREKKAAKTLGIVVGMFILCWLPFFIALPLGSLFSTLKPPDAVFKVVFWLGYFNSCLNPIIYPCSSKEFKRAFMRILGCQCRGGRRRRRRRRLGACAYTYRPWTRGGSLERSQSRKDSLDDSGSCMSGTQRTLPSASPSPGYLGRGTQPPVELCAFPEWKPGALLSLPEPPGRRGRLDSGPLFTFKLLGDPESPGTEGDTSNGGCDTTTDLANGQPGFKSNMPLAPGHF
# Summary of the method: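 Filter binding with Wistar rat liver α1B preparation: test compound plus 0.25 nM [3H]prazosin, 1 h at 25° C in modified Tris-HCl buffer pH 7.4.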
# [4] = [3H]Rauwolscine, repeat datapoints each shown
"Percentage inhibition of ligand binding, Adrenergic α2B (0.03 μM) [1, 4]","Percentage inhibition of ligand binding, Adrenergic α2A (0.1 μM) [2]","Percentage inhibition of ligand binding, Adrenergic α1B (0.1 μM) [3]",Ki [1],"inhibition at 0.03 µM [1, 4]",inhibition at 0.1 µM [2],inhibition at 0.1 µM [3],"inhibition at 0.1 µM ([1]; read-out: Percentage inhibition of ligand binding, Adrenergic α2B (0.1 μM), compound at 0.1 μM, [3H]Rauwolscine, repeat datapoints each shown)","inhibition at 0.03 µM ([3]; read-out: Percentage inhibition of ligand binding, Adrenergic α1B (0.03 μM), compound at 0.03 μM)",Compound
70%,−5%,25%,–,–,–,–,–,–,"Cc1ccc2c(c1)c1c(n2CC(OC(=O)N(C)C)c2ccncc2)CCN(C)C1 (single isomer, unassigned) [141a, N,N-dimethyl-carbamic acid 2-(2,8-dimethyl-1,2,3,4-tetrahydro-pyrido[4,3-b]indol-5-yl)-1-pyridin-4-yl-ethyl ester]"
86%,–,–,3.44 nM,79%,19%,28%,–,–,"Cc1ccc2c(c1)c1c(n2CC(OC(=O)N(C)C)c2ccncc2)CCN(C)C1 (single isomer, unassigned) [141b, N,N-dimethyl-carbamic acid 2-(2,8-dimethyl-1,2,3,4-tetrahydro-pyrido[4,3-b]indol-5-yl)-1-pyridin-4-yl-ethyl ester]"
49%,0%,17%,–,–,–,–,–,–,"CN1CCc2c(c3cc(Cl)ccc3n2CC(C)(O)c2ccc(C(F)(F)F)nc2)C1 (single isomer, unassigned) [143b]"
37%,−1%,41%,–,–,–,–,–,–,"Cc1ccc2c(c1)c1c(n2CC(C)(OC(=O)C(C)C)c2cccnc2)CCN(C)C1 (single isomer, unassigned) [146a]"
63%,21%,11%,–,–,–,–,–,–,"Cc1ccc2c(c1)c1c(n2CC(C)(OC(=O)C(C)C)c2cccnc2)CCN(C)C1 (single isomer, unassigned) [146b]"
72%,3%,33%,–,–,–,–,–,–,"Cc1ccc2c(c1)c1c(n2CC(OC(=O)c2ccncc2)c2ccncc2)CCN(C)C1 (single isomer, unassigned) [147a, isonicotinic acid 2-(2,8-dimethyl-1,2,3,4-tetrahydro-pyrido[4,3-b]indol-5-yl)-1-pyridin-4-yl-ethylester]"
93%,36%,82%,–,–,–,–,–,–,"Cc1ccc2c(c1)c1c(n2CC(OC(=O)c2ccncc2)c2ccncc2)CCN(C)C1 (single isomer, unassigned) [147b, isonicotinic acid 2-(2,8-dimethyl-1,2,3,4-tetrahydro-pyrido[4,3-b]indol-5-yl)-1-pyridin-4-yl-ethylester]"
52%,−5%,23%,–,–,–,–,–,–,"Cc1cnc2c(c1)c1c(n2CC(C)(O)c2ccc(C)nc2)CCN2CCCC12 (single isomer, unassigned) [148a]"
–,–,74%,0.43 nM,105%,37%,71%,106%,35%,"Cc1cnc2c(c1)c1c(n2CC(C)(O)c2ccc(C)nc2)CCN2CCCC12 (single isomer, unassigned) [148b]"
16%,−1%,6%,–,–,–,–,–,–,"Cc1cnc2c(c1)c1c(n2CC(C)(O)c2ccc(C)nc2)CCN2CCCC12 (single isomer, unassigned) [148c]"
–,−4%,–,–,16%,–,12%,–,–,"Cc1ccc2c(c1)c1c(n2CC(C)(N)c2cccnc2)CCN(C)C1 (single isomer, unassigned) [149a, 1-(2,8-dimethyl-3,4-dihydro-1H-pyrido[4,3-b]indol-5(2H)-yl)-2-(pyridin-3-yl)propan-2-amine]"
